Results published in publication PMC8620685, “Effect of Selected Silyl Groups on the Anticancer Activity of 3,4-Dibromo-5-Hydroxy-Furan-2(5H)-One Derivatives” (Pharmaceuticals, 2021).

Tested on: survivin
Experiment: Human Apoptosis Proteome Profiler array, survivin
Assay type: cell-based
Conditions: HCT-116, 1 h exposure, 2 × IC50
Description: To explore in detail the molecular mechanism of apoptosis induction by compounds 3b and 3c, we employed Human Apoptosis Proteome Profiler arrays that allow quantification of apoptosis-related biomarkers (Figure 3C). […] Collectively, it can be concluded that silyl derivative 3b promotes cell death in HCT 116 cells by the alteration of expression levels of survivin and activation of caspase-3.
The Human Apoptosis Array Kit (R&D Systems, Abingdon, UK) was used to determine the levels of expression of apoptosis-related proteins. 2.5 × 10^5 HCT 116 wt cells were seeded on 100 mm dishes (Nunc, ThermoFisher, Waltham, MA, USA) and allowed to attach for 24 h. Then the medium was replaced with tested compounds at a concentration corresponding 2 × IC50 value and the cells were incubated in 37 °C. After 60 min the cells were lysed and the lysates were clarified by centrifugation for 30 min at 14,000× g. The total protein concentration was measured using the Protein Quantification Kit-Rapid (Sigma-Aldrich, Taufkirchen, Germany) according to the manufacturer’s instruction. The next steps followed instructions from the manufacturer of the Human Apoptosis Array Kit. The membranes were then scanned in the G:Box trans illuminator (Syngene, Cambridge, UK) and the protein expression levels were quantified by densitometric analysis using ImageJ software.

Question: For `CC(C)[Si](OC1OC(=O)C(Br)=C1Br)(C(C)C)C(C)C` (stereo not shown) [Compound 3b, 3,4-Dibromo-5-(triisopropylsilyloxy)-furan-2(5H)-one], which survivin expression is on record?
Answer: down-regulation of survivin
